# How the values were obtained:
# C6 glioma cells [1] = test: G1 synchronized by Ara-C, flow cytometry; type: cell-based, rat; details: 60 nM MJ-66 after 41.6 nM Ara-C 12 hours; at 12th and 24th hours
# Method: At indicated time points (0, 6, 12 and 24 hr), >10^6 cells were collected and fixed in 70% ethanol over 1 hour at −20° C. After staining with PI as described, DNA content of ten thousand cells was analyzed by flow cytometry.
# To investigate the influence of MJ-66 on normal glia such as human glia cell line SVGP12 and rat primary glia cells, cells were treated with different concentrations of MJ-66 in vitro (0.00625, 0.0125, 0.025, 0.05, 0.1 and 1 μM) for different time durations (0, 6, 12 and 24 hours) and the cell viability was assessed by MTS assay. Cells alone or treated with DMSO were used as control. […] However, most glia cells in animals are static and their proliferation rate is almost silent. Therefore, cytosine arabinoside (Ara-C), a DNA synthesis inhibitor, was further used to inhibit glioma cell proliferation and glioma cells were then treated with MJ-66 or DMSO as described in “General materials and methods”. Specifically, after C6 glioma cells were treated with 41.6 nM Ara-C for 12 hours, and then treated with solvent (DMSO) or 60 nM MJ-66 for 0, 6, 12 and 24 hours, the cell cycle distributions and DNA content of the cells were monitored by flow cytometry with propidium iodide staining C6 glioma cells treated with 41.6 nM Ara-C for 12 hours (12 hr) were detected by flow cytometry with propidium iodide staining as control.
# C6 glioma cells [2] = test: cell cycle assay by flow cytometry with propidium iodide; type: cell-based, rat; details: 60 nM
# Method: To analyze cellular DNA content by flow cytometry, 3×10^5 cells were seeded in 10 cm dish and incubated for 24 hours at 37° C. […] At indicated time points (0, 6, 12, 24 and 48 hr), over 10^6 cells were suspended with 0.05% trypsin-EDTA, and fixed in 70% ethanol over 1 hour at −20° C. After washed by phosphate-buffered saline (PBS) twice, cells were then suspended with 1 ml propidium iodide/Triton-X 100 staining solution (20 μg/ml PI, 0.1% Triton-X 100 and 0.2 mg/ml ribonuclease A (RNase A, Sigma) in PBS) and incubated for 30 minutes at room temperature in the dark. After filtered by 35 μm nylon mesh (Falcon, 352235), the DNA content was then analyzed by flow cytometry (FACS can, BD Bioscience). The cell-cycle distribution (subG1, G1, S, G2/M, and >4N DNA content) of ten thousand cells was analyzed by WinMDI software.
# To investigate the cell cycle distribution of MJ-66-treated glioma cell, C6 glioma cells were treated with 60 nM MJ-66 for 0, 6, 12, 24, 36 and 48 hours, and the cell cycle distributions of the percentages of cells at subG1, G1, S and G2/M phases and DNA content of cells were monitored by flow cytometry with propidium iodide staining.
# rat primary glia cells = test: MTS cell viability assay, rat primary glia cells; type: cell-based; details: 0.00625-1 μM
# Method: The human glioma cell lines U87, U251, T98G, U373, and rat glioma cell line RT2 provided by Dr. Michael Hsiao (Genomics Research Center, Academia Sinica, Taiwan) were cultured in Dulbecco's Modified Eagle medium (DMEM) (Caisson) supplemented with 10% fetal bovine serum (FBS) (Sigma-Aldrich), 2 mM L-glutamine (Caisson), 100 U/ml penicillin, and 100 μg/ml streptomycin (Caisson). The rat glioma C6 cell line provided by Dr. Shun-Fen Tzeng (National Cheng Kung University, Taiwan) was cultured in DMEM/F12 (Caisson) supplemented with 10% fetal bovine serum, 2 mM L-glutamine, 100 U/ml penicillin, and 100 μg/ml streptomycin. […] Cell proliferation was determined by MTS (tetrazolium compound, 3-(4,5-dimethylthiazol-2-yl)-5-(3-carboxymethoxyphenyl)-2-(4-sulfophenyl)-2H-tetrazolium) assay (Promega). […] The absorbance of soluble formazan was measured at 490 nm with microplate reader (Molecular device). The cell viability was determined by the percentage of the absorption relative to untreated control. […] To investigate the influence of MJ-66 on normal glia such as human glia cell line SVGP12 and rat primary glia cells, cells were treated with different concentrations of MJ-66 in vitro (0.00625, 0.0125, 0.025, 0.05, 0.1 and 1 μM) for different time durations (0, 6, 12 and 24 hours) and the cell viability was assessed by MTS assay. […]
structure (smiles),measurement,setting,value
"O=c1[nH]c(-c2cccc3ccccc23)nc2ccc(N3CCCC3)cc12 [Compound 23, 6-(Pyrrolidin-1-yl)-2-(naphthalen-1-yl)quinazolin-4-one]",cell death of G1 arrest (Ara-C-treated) glioma cells,C6 glioma cells [1],not induced cell death
same,G2/M cell population,C6 glioma cells [2]; after 6 and 12 hours,significantly increased
same,sub G1 and >4N DNA content cell population,"C6 glioma cells [2]; after 24, 36 and 48 hours, time-dependent",increased
same,cell viability of rat glia cells,rat primary glia cells,inhibited
